Our source for the GI50 values is patent US8426169B2, “Glycosylate derivatives of mithramycin, method of preparation and uses thereof” (University of Kentucky Research Foundation, priority 2007, dated 2013).

Where two headings read alike, the source gives them in different places.

Common to all, as to format: cell-based
One test has as its system MDA-MB-231 (breast). Description: SRB colorimetric cell growth and viability assay, MDA-MB-231. Particulars: 48 hours of exposure, read-out: GI50, concentration at which the compound assayed inhibits 50% of the cell growth compared to non-treated cells.
The subject of the next test is A549 (lung). Briefly: SRB colorimetric cell growth and viability assay, A549. Particulars: 48 hours of exposure, read-out: GI50, concentration at which the compound assayed inhibits 50% of the cell growth compared to non-treated cells.
The subject of another test is HT29 (colon). Description: SRB colorimetric cell growth and viability assay, HT29. Particulars: read-out: GI50, concentration at which the compound assayed inhibits 50% of the cell growth compared to non-treated cells.
[1] abbreviates: Homo sapiens, HT-29, 48 hours of exposure.

With “6-dediolivosyl-6-β-D-amicetosyl-deoliosyl-3C-β-D-olivosyl-MTM [formula XXI]”, the GI50 in the test on MDA-MB-231 (breast) was 470 nM; in the test on A549 (lung) it was 440 nM; in the test on HT29 (colon) (48 hours of exposure), 940 nM.

With “6-dediolivosyl-6-β-D-amicetosyl-deoliosyl-demycarosyl-3C-β-D-boivinosyl-MTM [formula XVIII]”, the GI50 in the test with MDA-MB-231 (breast) was 400 nM; with A549 (lung), 750 nM; in the test with HT29 (colon) (48 hours of exposure), 2010 nM.

“6-dediolivosyl-6-β-D-amicetosyl-deoliosyl-demycarosyl-3C-β-D-olivosyl-3D-β-D-digitoxosyl-MTM [formula XX]”: the GI50 with MDA-MB-231 (breast), in the test on A549 (lung) and in the test with HT29 (colon) (48 hours of exposure) was more than 10000 nM throughout.

As to `CO[C@H](C(=O)[C@@H](O)[C@@H](C)O)[C@@H]1Cc2cc3cc(O[C@H]4C[C@@H](O[C@H]5C[C@@H](O)[C@H](O)C(C)O5)[C@H](O)C(C)O4)c(C)c(O)c3c(O)c2C(=O)[C@H]1O[C@H]1C[C@@H](O[C@H]2C[C@H](O[C@H]3C[C@](C)(O)[C@H](O)C(C)O3)[C@@H](O)C(C)O2)[C@H](O)C(C)O1` (stereo partly drawn) [formula IX, deoliosyl-3C-α-L-digitoxosyl-MTM], the figures for the GI50 in the test on MDA-MB-231 (breast) (Homo sapiens), in the test on A549 (lung) (Homo sapiens) and with HT29 (colon) (setting [1]) were 1940 nM, 2670 nM and 3870 nM, respectively.

For `CO[C@H](C(=O)[C@@H](O)[C@@H](C)O)[C@@H]1Cc2cc3cc(O[C@H]4C[C@@H](O[C@H]5C[C@@H](O)[C@H](O)C(C)O5)[C@H](O)C(C)O4)c(C)c(O)c3c(O)c2C(=O)[C@H]1O[C@H]1C[C@@H](O[C@H]2C[C@@H](O[C@H]3C[C@@H](O)[C@H](O)C(C)O3)[C@@H](O)C(C)O2)[C@H](O)C(C)O1` (stereo partly drawn) [formula VIII], the GI50 with MDA-MB-231 (breast) (Homo sapiens) is 230 nM; in the test with A549 (lung) (Homo sapiens), 190 nM; in the test on HT29 (colon) (setting [1]), 270 nM.

Regarding `CO[C@H](C(=O)[C@@H](O)[C@@H](C)O)[C@@H]1Cc2cc3cc(O[C@H]4C[C@@H](O[C@H]5C[C@@H](O)[C@H](O)C(C)O5)[C@H](O)C(C)O4)c(C)c(O)c3c(O)c2C(=O)[C@H]1O[C@H]1C[C@@H](O[C@H]2C[C@](C)(O)[C@H](O)C(C)O2)[C@H](O)C(C)O1` (stereo partly drawn) [formula X, deoliosyl-3C-β-D-mycarosyl-MTM], the GI50 in the test with MDA-MB-231 (breast) (Homo sapiens) turned out to be 370 nM; with A549 (lung) (Homo sapiens) it was 480 nM; in the test with HT29 (colon) (setting [1]) it was 930 nM.

Turning to `CO[C@H](C(=O)[C@@H](O)[C@@H](C)O)[C@@H]1Cc2cc3cc(O[C@H]4C[C@@H](O)[C@H](O)C(C)O4)c(C)c(O)c3c(O)c2C(=O)[C@H]1O[C@H]1C[C@@H](O[C@H]2C[C@@H](O[C@H]3C[C@](C)(O)[C@H](O)C(C)O3)[C@@H](O)C(C)O2)[C@H](O)C(C)O1` (stereo partly drawn) [formula XI, 3A-deolivosyl-MTM], the GI50 in the test on MDA-MB-231 (breast) (Homo sapiens) was determined as 450 nM; in the test with A549 (lung) (Homo sapiens), 750 nM; in the test on HT29 (colon) (setting [1]), 710 nM.

For `CO[C@H](C(=O)[C@@H](O)[C@@H](C)O)[C@@H]1Cc2cc3cc(O[C@H]4C[C@@H](O[C@H]5C[C@@H](O)[C@H](O)C(C)O5)[C@H](O)C(C)O4)c(C)c(O)c3c(O)c2C(=O)[C@H]1O[C@H]1C[C@@H](O[C@H]2C[C@@H](O)[C@@H](O)C(C)O2)[C@H](O)C(C)O1` (stereo partly drawn) [formula XII, demycarosyl-MTM], the GI50 is 1280 nM in the test on MDA-MB-231 (breast) (Homo sapiens), 1810 nM with A549 (lung) (Homo sapiens) and more than 10000 nM in the test on HT29 (colon) (setting [1]).

Consider `CO[C@H](C(=O)[C@@H](O)[C@@H](C)O)[C@@H]1Cc2cc3cc(O[C@H]4CC[C@H](O)C(C)O4)c(C)c(O)c3c(O)c2C(=O)[C@H]1O[C@H]1C[C@@H](O[C@H]2C[C@@H](O[C@H]3C[C@](C)(O)[C@H](O)C(C)O3)[C@@H](O)C(C)O2)[C@H](O)C(C)O1` (stereo partly drawn) [formula XIII], for which the GI50 in the test with MDA-MB-231 (breast) (Homo sapiens) turned out to be 1380 nM; with A549 (lung) (Homo sapiens) it was 1490 nM; in the test with HT29 (colon) (setting [1]) it was 3190 nM.

With “deoliosyl-demycarosyl-3C-β-D-boivinosyl-MTM [formula XVII]”, the GI50 in the test on MDA-MB-231 (breast) is 3720 nM; with A549 (lung), more than 10000 nM; in the test on HT29 (colon) (48 hours of exposure), more than 10000 nM.

Regarding “deoliosyl-demycarosyl-3C-β-D-olivosyl-3D-β-D-digitoxosyl-MTM [formula XIX]”, the GI50 with MDA-MB-231 (breast) worked out at 690 nM; in the test with A549 (lung), 910 nM; with HT29 (colon) (48 hours of exposure), 5980 nM.
